# Experimental data taken from PubChem BioAssay AID1963856 (Molecular Pharmacology Branch, DTP, NCI, 2024).
# Test system: LG0567-F671-PDC KRAS tumor spheroid viability
# Experiment: Anticancer human tumor LG0567-F671-PDC patient-derived lung adenocarcinoma cell line growth inhibition [KRAS2]
# Settings: spheroids with HUVEC and MSC; for IC50: curve of first compound; for viability, T/C: stronger effect = lower value
# Procedure, shortened: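 Combination screen of spheroid viability in tumor-cell co-cultures with endothelial (HUVEC) and mesenchymal stem cell stroma. Each agent was tested in half-log dilutions, topping at clinical Cmax or at 10 microM without a known Cmax.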
# [1] = second compound 0.1 µM, first compound 0.0316 µM
# [2] = second compound 0.1 µM, first compound 0.1 µM
# [3] = second compound 0.1 µM, first compound 0.316 µM
# [4] = second compound 0.1 µM, first compound 1 µM
# [5] = second compound 0.1 µM, first compound 3.16 µM
# [6] = second compound 0.1 µM, first compound 10 µM
# [7] = second compound 0.316 µM, first compound 0.0316 µM
# [8] = second compound 0.316 µM, first compound 0.1 µM
# [9] = second compound 0.316 µM, first compound 0.316 µM
# [10] = second compound 0.316 µM, first compound 1 µM
# [11] = second compound 0.316 µM, first compound 3.16 µM
# [12] = second compound 0.316 µM, first compound 10 µM
# [13] = second compound 1 µM, first compound 0.0316 µM
# [14] = second compound 1 µM, first compound 0.1 µM
# [15] = second compound 1 µM, first compound 0.316 µM
# [16] = second compound 1 µM, first compound 1 µM
# [17] = second compound 1 µM, first compound 3.16 µM
# [18] = second compound 1 µM, first compound 10 µM
# [19] = second compound 3.16 µM, first compound 0.0316 µM
# [20] = second compound 3.16 µM, first compound 0.1 µM
# [21] = second compound 3.16 µM, first compound 0.316 µM
# [22] = second compound 3.16 µM, first compound 1 µM
# [23] = second compound 3.16 µM, first compound 3.16 µM
# [24] = second compound 3.16 µM, first compound 10 µM
# [25] = second compound 10 µM, first compound 0.0316 µM
# [26] = second compound 10 µM, first compound 0.1 µM
# [27] = second compound 10 µM, first compound 0.316 µM
# [28] = second compound 10 µM, first compound 1 µM
# [29] = second compound 10 µM, first compound 3.16 µM
# 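Note: drug exposure lasted seven days after spheroids formed for three days.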
# 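Throughout, for viability, T/C: 100% = DMSO vehicle control viability.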
Compound,IC50 (second compound 0.1 µM),IC50 (second compound 0.316 µM),IC50 (second compound 1 µM),IC50 (second compound 3.16 µM),"viability, T/C [1]","viability, T/C [2]","viability, T/C [3]","viability, T/C [4]","viability, T/C [5]","viability, T/C [7]","viability, T/C [8]","viability, T/C [9]","viability, T/C [10]","viability, T/C [11]","viability, T/C [13]","viability, T/C [14]","viability, T/C [15]","viability, T/C [16]","viability, T/C [17]","viability, T/C [19]",also measured
O=C(c1cc(Cc2n[nH]c(=O)c3ccccc23)ccc1F)N1CCN(C(=O)C2CC2)CC1 + C=CC(=O)N1CCN(c2nc(=O)n(-c3c(C)ccnc3C(C)C)c3nc(-c4c(O)cccc4F)c(F)cc23)C(C)C1,< 31.6 nM,< 31.6 nM,< 31.6 nM,< 31.6 nM,24.8%,21.5%,23.1%,26.7%,29.2%,23.1%,22.8%,25.1%,21.5%,26.9%,25.8%,25.6%,25.2%,23.6%,25.4%,25.1%,"IC50 (second compound 10 µM): < 31.6 nM; viability, T/C [6]: 33.6%; viability, T/C [12]: 30.4%; viability, T/C [18]: 30.4%; viability, T/C [20]: 27.8%; viability, T/C [21]: 25.7%; viability, T/C [22]: 23.8%; viability, T/C [23]: 23.9%; viability, T/C [24]: 31.8%; viability, T/C [25]: 32.1%; viability, T/C [26]: 32.1%; viability, T/C [27]: 31.9%; viability, T/C [28]: 30%; viability, T/C [29]: 30.4%; viability, T/C (second compound 10 µM, first compound 10 µM): 28.3%"
CC1COCCN1c1cc(-c2ccnn2C)c2ccnc(-c3ccn[nH]3)c2n1 (stereo not given) + CC1OCC2(CCN(c3cnc(Sc4ccnc(N)c4Cl)c(N)n3)CC2)C1N,< 10 nM,< 10 nM,< 10 nM,< 10 nM,41.8%,32%,36.3%,41.7%,48.2%,31.8%,24.9%,18.5%,21.6%,27.5%,23.4%,19%,15.3%,10.2%,9.22%,16.3%,"IC50 (second compound 10 µM): < 10 nM; viability, T/C (second compound 0.1 µM, first compound 0.01 µM): 59.9%; viability, T/C (second compound 0.316 µM, first compound 0.01 µM): 39%; viability, T/C (second compound 1 µM, first compound 0.01 µM): 28.2%; viability, T/C (second compound 3.16 µM, first compound 0.01 µM): 23%; viability, T/C [20]: 10.9%; viability, T/C [21]: 7.95%; viability, T/C [22]: 8.32%; viability, T/C [23]: 3.11%; viability, T/C (second compound 10 µM, first compound 0.01 µM): 14.4%; viability, T/C [25]: 12%; viability, T/C [26]: 7.07%; viability, T/C [27]: 3.98%; viability, T/C [28]: 2.99%; viability, T/C [29]: 1.57%"
CC1OCC2(CCN(c3cnc(Sc4ccnc(N)c4Cl)c(N)n3)CC2)C1N (stereo not given) + C=CC(=O)N1CCN(c2nc(OCC3CCCN3C)nc3c2CCN(c2cccc4cccc(C)c24)C3)CC1CC#N,< 31.6 nM,< 31.6 nM,< 31.6 nM,< 31.6 nM,24.7%,14.6%,13.5%,7.14%,3.83%,26.3%,17.8%,12.3%,10%,5.4%,20.1%,15.6%,11.5%,7.73%,5.45%,29.1%,"IC50 (second compound 0.0316 µM): < 31.6 nM; viability, T/C (second compound 0.0316 µM, first compound 0.0316 µM): 28.3%; viability, T/C (second compound 0.0316 µM, first compound 0.1 µM): 18.1%; viability, T/C (second compound 0.0316 µM, first compound 0.316 µM): 16.3%; viability, T/C (second compound 0.0316 µM, first compound 1 µM): 11.3%; viability, T/C (second compound 0.0316 µM, first compound 3.16 µM): 5.27%; viability, T/C (second compound 0.0316 µM, first compound 10 µM): 4.04%; viability, T/C [6]: 4.19%; viability, T/C [12]: 3.32%; viability, T/C [18]: 6.7%; viability, T/C [20]: 21.1%; viability, T/C [21]: 17.2%; viability, T/C [22]: 8.14%; viability, T/C [23]: 5.63%; viability, T/C [24]: 4.39%"
